Patent publication US20230329993A1, “PERSONAL CLEANSING COMPOSITION FREE OF ALKYL SULFATE OR ALKYL ETHER SULFATE TYPE OF SURFACTANTS” (The Procter & Gamble Company, priority 2022, published 2023)

Experiment: Cone/Plate Viscosity Measurement
Type: physicochemical
Settings: composition such as C. Ex. 1; thickener level not stated
Protocol: The viscosity of the personal cleansing composition is measured by a Cone/Plate Brookfield DV12T, by Brookfield Engineering Laboratories, Stoughton, MA. The cone used (Spindle CPA-41z) has a diameter of […] and 3° angle. The viscosity is determined using a steady state flow experiment at constant shear rate of 2 s^−1 and at temperature of 26.5° C. The sample size is 2.5 mL.

Effect of a thickener on enhancing the viscosity of a personal cleansing composition: good response
Substance: cocamide MEA
